Test results reported in patent publication US8173673B2, “Biofilm-inhibiting effect and anti-infective activity of N,C-linked aryl isoquinolines and the use thereof” (Julius-Maximilians-Universitaet Wuerzburg, priority 2006, dated 2012).
Where a name gives a salt, the structure may show the parent alone.

Key:
[1] = test system: 293 kidney epithelial cells; assay: Cytotoxicity by the Alamar-Blue assay; format: cell-based
Protocol: Determination of the Cytotoxicity by the Alamar-Blue®-Assay with the Example of Substance A
The cytotoxicity of A was determined by means of an Alamar-Blue®-assay. First, a geometric series of dilutions of A in cellular medium (293 kidney epithelial cells; without phenol red) with 1% DMSO was produced, and in a 96-well-polystyrol-flat bottom-microtiter plate vorgelegt. The cells were trypsinized, and washed once. For the test, a cellular suspension of 10^5 cells/ml was prepared, and 20 μl thereof were pipetted into the wells. The final volume was 200 μl. After 24 h incubation at 37° C. and 5% CO2, 20 μl Alamar Blue (Trinova Biochem, Gieβen, Germany) was added into each well, and the microtiter plate was incubated further. The wells that contained the medium and substance, as well as those that only contained cellular suspension (without substance), served as negative or positive control, respectively. The optical density was measured after 24 h and 48 h with an ELISA-reader at the wavelengths 550 nm and 630 nm. The IC50 value for A was calculated following linear interpolation (W. Huber, J. C. Koella Acta Tropica 1993, 55, 257-261).

S. epidermidis RP62A = assay: Biofilm test on polystyrene surfaces (crystal violet); format: cell-based, Staphylococcus epidermidis; conditions: drug concentration of 0.63 μM
Protocol: Determination of the Formation of Biofilms of Staphylococci on Polystyrene-Surfaces (Biofilm Test)
For determining the effect of a test compound on the formation of biofilms of staphylococci, the biofilm-reference strain S. epidermidis RP62A is inoculated in trypticase-soy-broth (TSB) with a common 0.25% (w/v) glucose concentration (standard-TSB), and grown over night at 37° C. in a shaking incubator until the stationary growth phase. On the next day, the cultures are diluted 1:100 with fresh TSB, and 100 μl of this germ suspension are pipetted into the wells of a 96-well-polystyrol-tissue culture plate with flat bottom (Greiner, Nürtingen, Germany). In the meantime, also a geometric series of dilutions of the test substance is produced in TSB, and also 100 μl of each of these dilutions are added to the den germ suspensions. The plates were incubated at 37° C. in an incubator for 18 hours at 37° C. On the next day, first the growth of the cultures is checked through determining of the optical density at 550 nm by means of an ELISA-reader (see also at MIC-determination), and documented. Then, the cultures are carefully poured out of the wells, and the plates were washed three times with phosphate-buffered saline solution (PBS), in order to remove non-adherent bacteria. […] After drying, the density of the adherent biofilm is determined with an ELISA-reader at a wavelength of 490 nm.

[2] = test system: Staphylococcus aureus NCTC 8325; assay: MIC, micro-bouillon-dilution method; format: cell-based; conditions: Staphylococcus aureus NCTC 8325, 18 hours at 37° C.
Source text: (§1) Examination of the Inhibitory Effect Through Determining of the Minimal Inhibitory Concentration (MIC) in the Micro-Bouillon-Dilution Methods
(§2) In this method, a series of dilutions with decreasing concentrations of drug is produced in 96-well-microtiter plates from a stock solution of the compound. The drug-containing microtiter plate-wells are inoculated with a defined amount of the pathogen to be tested, and cultivated. The concentration of the compound in the well, where no more turbidity of the medium due to a growth of the pathogens could be optically detected is given as the MIC.
(§3) The test strains were inoculated in Luria-Bertani-medium, and grown over night in a shaking incubator at 37° C. until stationary growth phase. On the following day, the culture was diluted 1:100 with fresh Müller-Hinton-bouillon (MH-Medium) containing 5% NaCl (w/v), and until logarithmic growth phase incubated again at 37° C. inkubiert. The optical density of the bacterial suspension was photometrically measured at 550 nm, and the suspension adjusted at 2×10^5 colony forming units/ml (CFU/ml). In the meantime, a geometric series of dilutions of the test compounds was produced in MH-medium. 100 μl of each dilution were pipetted into the corresponding wells of a 96-well-polystyrene-flat bottom-microtiter plate. The plates were inoculated with 100 μl of the pre-prepared inoculum, and cultured in the incubator for 18 hours at 37° C. On the following day, the optical density of the bacterial cultures in the wells was determined with an ELISA-reader at a wavelength of 550 nm, compared to the blank value (=non-inoculated MH-medium). The concentrations of the compound in the last wells, wherein no more growth of the pathogens could be detected, is given as the MIC. A low MIC indicates a high inhibitory activity of a compound, whereas a high concentration indicates a low activity.
(§4) The MIC of, for example, A was tested for the following germs and strains: • Staphylococcus aureus 325: Biofilm-positive clinical isolate from blood culture, wild type • Staphylococcus aureus NCTC 8325: Biofilm-negative reference strain, genome published • Staphylococcus epidermidis RP62A: Biofilm-positive, multi resistant reference strain • Escherichia coli 536: urinary tract isolate, reference strain • Pseudomonas aeruginosa: environmental isolate • Candida albicans 5314: clinical isolate

Candida albicans 5314 = assay: MIC, micro-bouillon-dilution method; format: cell-based; conditions: Candida albicans 5314, 18 hours at 37° C.
Source text: as §1, §2, §3, §4

Pseudomonas aeruginosa = assay: MIC, micro-bouillon-dilution method; format: cell-based
Source text: as §1, §2, §3, §4

[3] = test system: Staphylococcus aureus 325; assay: MIC, micro-bouillon-dilution method; format: cell-based; conditions: Staphylococcus aureus 325, 18 hours at 37° C.
Source text: as §1, §2, §3, §4

Escherichia coli 536 = assay: MIC, micro-bouillon-dilution method; format: cell-based; conditions: Escherichia coli 536, 18 hours at 37° C.
Source text: as §1, §2, §3, §4

[4] = test system: Staphylococcus epidermidis RP62A; assay: MIC, micro-bouillon-dilution method; format: cell-based; conditions: 18 hours at 37° C.
Source text: as §1, §2, §3, §4

Structure (SMILES): COc1cc(OC)c2c(C)[n+](-c3ccc(-c4ccc(-[n+]5c(C)cc6cc(OC)cc(OC)c6c5C)cc4)cc3)c(C)cc2c1 [A, N,N′-(1,1′-benzidine)-di-(6,8-dimethoxy-1,3-dimethylisoquinolinium)-salt]
- IC50 [1]: 42.4 µM
- reduction of the formation of biofilms compared to a control without the substance (S. epidermidis RP62A): about 90%
- Minimal inhibitory concentrations [2]: 5.00 µM
- Minimal inhibitory concentrations (Candida albicans 5314): 1.25 µM
- Minimal inhibitory concentrations (Pseudomonas aeruginosa; Pseudomonas aeruginosa, 18 hours at 37° C.): >160 µM
- growth-inhibiting effect (Pseudomonas aeruginosa; pseudomonades, result in words): fully ineffective
- Minimal inhibitory concentrations [3]: 0.63 µM
- Minimal inhibitory concentrations (Escherichia coli 536): 20.00 µM
- Minimal inhibitory concentrations [4]: 0.63 µM
